What was measured:
Format in all cases: in vivo
[1] = system: giant foxtail (Setaria faberii); test: Test A preemergence; conditions: Setaria faberi, pre-emergence, 240 h, 0 to 100 scale where 0 is no effect and 100 is complete control, read-out: Foxtail, Giant plant response rating
Method in brief: (§1)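 Seeds sprayed preemergence with a directed soil spray, or plants at 2 to 10 cm height and one- to two-leaf stage sprayed postemergence, with test chemicals in a non-phytotoxic solvent mixture containing surfactant, in loam soil–sand blend. Injury rated visually against untreated controls after about 10 d in greenhouse, 0 (no effect) to 100 (complete control).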

[2] = system: barnyardgrass (Echinochloa crus-galli); test: Test A preemergence; conditions: Echinochloa crus-galli, pre-emergence, 240 h, 0 to 100 scale where 0 is no effect and 100 is complete control, read-out: Barnyardgrass plant response rating
Method in brief: as §1

[3] = system: pigweed (Amaranthus retroflexus); test: Test A preemergence; conditions: Amaranthus retroflexus, pre-emergence, 240 h, 0 to 100 scale where 0 is no effect and 100 is complete control, read-out: Pigweed plant response rating
[4] = system: ragweed (common ragweed, Ambrosia elatior); test: Test A preemergence; conditions: Ambrosia artemisiifolia, pre-emergence, 240 h, 0 to 100 scale where 0 is no effect and 100 is complete control, read-out: Ragweed plant response rating
Method in brief: as §1

[5] = system: Kochia (Kochia scoparia); test: Test A preemergence; conditions: Bassia scoparia, pre-emergence, 240 h, 0 to 100 scale where 0 is no effect and 100 is complete control, read-out: Kochia plant response rating
Method in brief: as §1

[6] = system: ryegrass, Italian (Italian ryegrass, Lolium multiflorum); test: Test A preemergence; conditions: Lolium multiflorum, pre-emergence, 240 h, 0 to 100 scale where 0 is no effect and 100 is complete control, read-out: Ryegrass, Italian plant response rating
Method in brief: as §1

[7] = system: giant foxtail (Setaria faberii); test: Test A postemergence; conditions: Setaria faberi, post-emergence, 240 h, read-out: Foxtail, Giant plant response rating (0 to 100 scale)
Method in brief: as §1

[8] = system: barnyardgrass (Echinochloa crus-galli); test: Test A postemergence; conditions: Echinochloa crus-galli, post-emergence, 240 h, read-out: Barnyardgrass plant response rating (0 to 100 scale)
Method in brief: as §1

[9] = system: pigweed (Amaranthus retroflexus); test: Test A postemergence; conditions: Amaranthus retroflexus, post-emergence, 240 h, read-out: Pigweed plant response rating (0 to 100 scale)
Method in brief: as §1

[10] = system: ragweed (common ragweed, Ambrosia elatior); test: Test A postemergence; conditions: Ambrosia artemisiifolia, post-emergence, 240 h, read-out: Ragweed plant response rating (0 to 100 scale)
Method in brief: as §1

[11] = system: corn (Zea mays); test: Test A postemergence; conditions: Zea mays, post-emergence, 240 h, read-out: Corn plant response rating (0 to 100 scale)
Method in brief: as §1

[12] = system: Galium (catchweed bedstraw, Galium aparine); test: Test A postemergence; conditions: Galium, post-emergence, 240 h, read-out: Galium plant response rating (0 to 100 scale)
Method in brief: as §1

[13] = system: wheat (Triticum aestivum); test: Test A postemergence; conditions: Triticum aestivum, post-emergence, 240 h, Postemergence, 31 g ai/ha; 0 is no effect, 100 is complete control; read-out: Wheat plant response rating (0 to 100 scale)
Method in brief: as §1

[14] = system: Kochia (Kochia scoparia); test: Test A postemergence; conditions: Bassia scoparia, post-emergence, 240 h, read-out: Kochia plant response rating (0 to 100 scale)
Method in brief: as §1

[15] = system: blackgrass (Alopecurus myosuroides); test: Test A postemergence; conditions: Alopecurus myosuroides, post-emergence, 240 h, read-out: Blackgrass plant response rating (0 to 100 scale)
Method in brief: as §1

[16] = system: ryegrass, Italian (Italian ryegrass, Lolium multiflorum); test: Test A postemergence; conditions: Lolium multiflorum, post-emergence, 240 h, read-out: Ryegrass, Italian plant response rating (0 to 100 scale)
Method in brief: as §1

[17] = system: rice (Oryra sativa); test: Test B flooded paddy test; conditions: Oryza sativa, 250 g ai/ha, Flood; 0 to 100 scale where 0 is no effect and 100 is complete control; read-out: Rice plant response rating
Method in brief: (§2)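 Evaluation by eye, against controls, occurred 13–15 d post-treatment in a greenhouse, using a 0 (no effect) to 100 (complete control) scale. Application was into the paddy water, 3 cm deep over the soil, on 2-leaf plants.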

[18] = system: sedge, umbrella (small-flower umbrella sedge, Cyperus difformis); test: Test B flooded paddy test; conditions: Cyperus difformis, 250 g ai/ha, Flood; 0 to 100 scale where 0 is no effect and 100 is complete control; read-out: Sedge, Umbrella plant response rating
Method in brief: as §2

[19] = system: barnyardgrass (Echinochloa crus-galli); test: Test B flooded paddy test; conditions: Echinochloa crus-galli, 250 g ai/ha, Flood; 0 to 100 scale where 0 is no effect and 100 is complete control; read-out: Barnyardgrass plant response rating
Method in brief: as §2

[20] = system: ducksalad (Heteranthera limosa); test: Test B flooded paddy test; conditions: Heteranthera limosa, 250 g ai/ha, Flood; 0 to 100 scale where 0 is no effect and 100 is complete control; read-out: Ducksalad plant response rating
Method in brief: as §2

[21] = 125 g ai/ha, preemergence, visual injury rating, approximately 10 d
[22] = 125 g ai/ha, postemergence, visual injury vs untreated controls after approx. 10 d, 0 = no effect, 100 = complete control
[23] = Postemergence, 31 g ai/ha, 0 is no effect, 100 is complete control

Cn1ccc2ccc([C@H]3CNC(=O)[C@@H]3C(=O)Nc3ccccc3F)cc21 [Compound 1264]
0%: pest or weed control at 31 g/ha ([1]; 31 g ai/ha, Preemergence) | pest or weed control at 125 g/ha [1, 21] | pest or weed control at 31 g/ha ([2]; 31 g ai/ha, Preemergence) | pest or weed control at 125 g/ha [2, 21] | pest or weed control at 31 g/ha ([3]; 31 g ai/ha, Preemergence) | pest or weed control at 125 g/ha [3, 21] | pest or weed control at 31 g/ha ([4]; 31 g ai/ha, Preemergence) | pest or weed control at 125 g/ha [4, 21] | pest or weed control at 31 g/ha ([5]; 31 g ai/ha, Preemergence) | pest or weed control at 125 g/ha [5, 21] | pest or weed control at 31 g/ha ([6]; 31 g ai/ha, Preemergence) | pest or weed control at 125 g/ha [6, 21] | pest or weed control at 125 g/ha [7, 22] | pest or weed control at 31 g/ha [7, 23] | pest or weed control at 125 g/ha [8, 22] | pest or weed control at 31 g/ha [8, 23] | pest or weed control at 125 g/ha [9, 22] | pest or weed control at 31 g/ha [9, 23] | pest or weed control at 125 g/ha [10, 22] | pest or weed control at 31 g/ha [10, 23] | plant injury at 125 g/ha [11, 22] | plant injury at 31 g/ha [11, 23] | pest or weed control at 125 g/ha [12, 22] | pest or weed control at 31 g/ha [12, 23] | plant injury at 31 g/ha [13] | pest or weed control at 125 g/ha [14, 22] | pest or weed control at 31 g/ha [14, 23] | pest or weed control at 125 g/ha [15, 22] | pest or weed control at 31 g/ha [15, 23] | pest or weed control at 125 g/ha [16, 22] | pest or weed control at 31 g/ha [16, 23] | pest or weed control at 250 g/ha [17] | pest or weed control at 250 g/ha [18] | pest or weed control at 250 g/ha [19] | pest or weed control at 250 g/ha [20]

Reference: patent US12077503B2, “Substituted cyclic amides and their use as herbicides” (FMC CORPORATION, priority 2015, dated 2024)
